Key:
Test in all cases: relative viability (nuclei count vs DMSO), 5 days (fraction); higher = more cells survive
[1] = compound: C1=CC=C(C(=C1)C2=CC=C(C=C2)C3=CSC4=C3C(=C(C(=O)N4)C#N)O)O + O=C(c1cc(Cc2n[nH]c(=O)c3ccccc23)ccc1F)N1CCN(C(=O)C2CC2)CC1 [Olaparib] (partner 8 µM)
How it was run: (§1)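 Relative viability is defined as nuclei in treated wells over nuclei in vehicle wells. Duplicate plates were run and medians reported. Lung cancer cell lines in 1536-well plates were dosed by pin tool one day after seeding, with one drug or with a fixed anchor-drug dose plus five library-drug doses (not always all listed) in √10 steps, and nuclei were counted after 5 days.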

[2] = compound: C1=CC=C(C(=C1)C2=CC=C(C=C2)C3=CSC4=C3C(=C(C(=O)N4)C#N)O)O + Cc1nc(NC(=O)N2CCC[C@H]2C(N)=O)sc1-c1ccnc(C(C)(C)C(F)(F)F)c1 [Alpelisib] (partner 2 µM)
How it was run: as §1

[3] = compound: CC1=CN2C(=O)C=C(N=C2C(=C1)C(C)NC3=CC=CC=C3)N4CCOCC4 [TGX 221] + O=C(c1cc(Cc2n[nH]c(=O)c3ccccc23)ccc1F)N1CCN(C(=O)C2CC2)CC1 [Olaparib] (partner 8 µM)
How it was run: as §1

[4] = compound: C1=CC=C(C(=C1)C2=CC=C(C=C2)C3=CSC4=C3C(=C(C(=O)N4)C#N)O)O + Nc1nc2[nH]cc(CCc3ccc(C(=O)N[C@@H](CCC(=O)O)C(=O)O)cc3)c2c(=O)[nH]1 [Pemetrexed] (partner 0.2 µM)
How it was run: as §1

With NCI-H1792 the relative viability ([1]; first compound 0.253 µM) was 0.324, the relative viability ([1]; first compound 0.8 µM) was 0.365 and the relative viability ([1]; first compound 2.53 µM) was 0.317. The relative viability ([1]; first compound 8 µM) was 0.389, the relative viability ([2]; first compound 0.253 µM) was 0.638 and the relative viability ([2]; first compound 0.8 µM) was 0.744. The relative viability ([2]; first compound 2.53 µM) was 0.612, the relative viability ([2]; first compound 8 µM) was 0.336 and the relative viability ([3]; first compound 0.08 µM) was 0.267. The relative viability ([3]; first compound 0.253 µM) was 0.385, the relative viability ([3]; first compound 0.8 µM) was 0.386 and the relative viability ([3]; first compound 2.53 µM) was 0.383. The relative viability ([3]; first compound 8 µM) was 0.287, the relative viability ([4]; first compound 0.253 µM) was 0.835 and the relative viability ([4]; first compound 0.8 µM) was 0.714. The relative viability ([4]; first compound 2.53 µM) was 0.649 and the relative viability ([4]; first compound 8 µM) was 0.477.

Source: the supplement of paper PMC10307832
